Data published in patent US20210382068A1, “HLA SINGLE ALLELE LINES” (priority 2018, published 2021).

Experiments:
[1] = test system: advanced hormone refractory prostate cancer patients; conditions: cited from earlier work
healthy human volunteers = conditions: 8 subjects with one single s.c. administration versus 4 subjects receiving placebo; cited from earlier work
[2] = more than 25 clinical trials; cited from earlier work
[3] = test system: ovarian carcinoma patients; conditions: cited from earlier work
[4] = test system: patient tumor cell lines (MEL, GBM, ccRCC); assay: IFNγ stimulation of patient tumor cell lines, HLA-bound peptides by IP/MS; type: cell-based, human; conditions: IFNγ-matched samples, 2000 Unit/ml IFNg for 3 days

**Q.** With `C[C@]12CC[C@@H]3c4ccc(OC(=O)N(CCCl)CCCl)cc4CC[C@H]3[C@@H]1CC[C@@H]2O` [estramustine] as the molecule, how does the “patients with >50% decrease in serum prostate specific antigen (PSA)” value [1] read?
**A.** The value was 54%.

**Q.** With “Polyinosinic-Polycytidylic Acid-poly-L-lysine Carboxymethylcellulose [poly-ICLC]” as the molecule, how does the “differential expression of genes versus placebo” value (healthy human volunteers) read?
**A.** The value was “up to 212 genes”.

**Q.** What about the toxicity profile [2] of the same molecule?
**A.** Its toxicity profile is “relatively benign toxicity profile”.

**Q.** What about the “generation of NY-ESO-1-specific CD4+ and CD8+ T-cell and antibody responses” value ([3]; 1.4 mg poly-ICLC and Montanide added, compared to OLP alone or OLP and Montanide) of the same molecule?
**A.** Its value is “markedly enhanced”.

**Q.** And the “patients showing induction of CD4+ and CD8+ T cell, as well as antibody responses to the peptide” value ([3]; poly-ICLC in combination with NY-ESO-1 peptide vaccine, in addition to Montanide, phase 1)?
**A.** The value was greater than 90%.

B1: IFNγ: interferon gamma (Peprotech) used to stimulate cultured tumor cells (protein, UniProt P01579 24-161, looked up)
Interferon gamma: QDPYVKEAENLKKYFNAGHSDVADNGTLFLGILKNWKEESDRKIMQSQIVSFYFKLFKNFKDDQSIQKSVETIKEDMNVKFFNSNKKKRDDFEKLTNYSVTDLNVQRKAIHELIQVMAELSPAAKTGKRKRSQMLFRG
**Q.** For B1, which “increase in peptides derived from IFNγ-response genes post stimulation” value [4] is on record?
**A.** The value was 2.4-5.6%.
